Assay results as given in ChEMBL document CHEMBL4229400, “Covalent inhibitors of nicotinamide N-methyltransferase (NNMT) provide evidence for target engagement challenges in situ” (Bioorg Med Chem Lett, 2018).
Residue numbers refer to the chain shown, from its start. Active and inactive are the calls of the source. The rule behind the calls is not given here.

Key:
[1] = biological target: T1, Nicotinamide N-methyltransferase (Homo sapiens) (UniProt P40261); assay: Binding affinity to NNMT C115 residue in human 786-O cell soluble proteomic lysate at 5 uM incubated for 1 hr followed by cell lysis by IA-alkyne probe based isoTOP-ABPP analysis relative to control
T1 sequence (whole entry): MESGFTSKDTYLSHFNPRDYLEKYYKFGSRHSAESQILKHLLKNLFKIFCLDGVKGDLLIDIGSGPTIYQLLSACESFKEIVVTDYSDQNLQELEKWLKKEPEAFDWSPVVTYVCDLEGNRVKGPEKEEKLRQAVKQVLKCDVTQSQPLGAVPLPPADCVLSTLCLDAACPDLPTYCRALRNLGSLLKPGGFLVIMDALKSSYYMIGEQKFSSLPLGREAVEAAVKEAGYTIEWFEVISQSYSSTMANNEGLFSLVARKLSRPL

[2] = biological target: T1, Nicotinamide N-methyltransferase (Homo sapiens); assay: Inhibition of SAH-rhodamine binding to NNMT in human 786-O cell soluble proteomic lysate assessed as ratio of observed rate constant to test compound concentration preincubated for 10 to 40 mins followed by SAH-rhodamine addition measured after 5 mins by Gel-based ABPP analysis
[3] = biological target: T1, Nicotinamide N-methyltransferase (Homo sapiens); assay: Binding affinity to NNMT C165 residue in human 786-O cell lysate at 5 uM incubated for 4 hrs followed by cell lysis by IA-alkyne probe based isoTOP-ABPP analysis
[4] = biological target: T2, Nicotinamide N-methyltransferase (Homo sapiens, UniProt P40261); assay: (§1) Inhibition of NNMT in human 786-O cell lysate using d4-nicotinamide as substrate preincubated for 1 hr followed by substrate and SAM addition measured after 15 to 30 mins by LC-MS analysis
T2 sequence (P40261 whole entry): T1 sequence (whole entry)

[5] = biological target: T1, Nicotinamide N-methyltransferase (Homo sapiens); assay: as §1
[6] = biological target: T1, Nicotinamide N-methyltransferase (Homo sapiens); assay: Binding affinity to NNMT C165 residue in human 786-O cell soluble proteomic lysate at 5 uM incubated for 1 hr followed by cell lysis by IA-alkyne probe based isoTOP-ABPP analysis relative to control
[7] = biological target: T1, Nicotinamide N-methyltransferase (Homo sapiens); assay: Binding affinity to NNMT C165 residue in human 786-O cell soluble proteomic lysate at 1 to 5 uM incubated for 1 hr followed by cell lysis by IA-alkyne probe based isoTOP-ABPP analysis
[8] = biological target: T1, Nicotinamide N-methyltransferase (Homo sapiens); assay: Inhibition of SAH-rhodamine binding to NNMT in human 786-O cell soluble proteomic lysate at 2 uM preincubated for 1 hr followed by SAH-rhodamine addition measured after 5 mins by Gel-based ABPP analysis
[9] = biological target: T2, Nicotinamide N-methyltransferase; assay: (§2) Inhibition of SAH-rhodamine binding to NNMT in human 786-O cell soluble proteomic lysate preincubated for 1 hr followed by SAH-rhodamine addition measured after 5 mins by Gel-based ABPP analysis
[10] = biological target: T1, Nicotinamide N-methyltransferase (Homo sapiens); assay: as §2
[11] = biological target: T1, Nicotinamide N-methyltransferase (Homo sapiens); assay: Binding affinity to NNMT C75 residue in human 786-O cell soluble proteomic lysate at 5 uM incubated for 1 hr followed by cell lysis by IA-alkyne probe based isoTOP-ABPP analysis relative to control
[12] = biological target: T3, Cytoskeleton-associated protein 4 (Homo sapiens) (UniProt Q07065); assay: Binding affinity to CKAP4 cysteine residue in human 786-O cell soluble proteomic lysate at 5 uM incubated for 1 hr followed by cell lysis by IA-alkyne probe based isoTOP-ABPP analysis
T3 sequence (whole entry): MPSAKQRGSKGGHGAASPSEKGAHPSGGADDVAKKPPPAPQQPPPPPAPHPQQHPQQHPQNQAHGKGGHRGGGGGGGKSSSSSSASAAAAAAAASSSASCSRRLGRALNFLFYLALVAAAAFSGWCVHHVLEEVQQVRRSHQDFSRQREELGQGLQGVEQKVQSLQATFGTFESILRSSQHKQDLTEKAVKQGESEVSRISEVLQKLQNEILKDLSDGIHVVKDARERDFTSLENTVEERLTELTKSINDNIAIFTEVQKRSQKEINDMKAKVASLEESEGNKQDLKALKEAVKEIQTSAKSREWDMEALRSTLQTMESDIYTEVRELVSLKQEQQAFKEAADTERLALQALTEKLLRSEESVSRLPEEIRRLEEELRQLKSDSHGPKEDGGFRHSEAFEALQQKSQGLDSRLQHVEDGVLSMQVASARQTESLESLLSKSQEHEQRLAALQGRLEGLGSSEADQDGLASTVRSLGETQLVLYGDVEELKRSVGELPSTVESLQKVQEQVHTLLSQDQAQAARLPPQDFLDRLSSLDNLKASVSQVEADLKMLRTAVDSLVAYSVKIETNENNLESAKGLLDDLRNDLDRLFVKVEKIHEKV

[13] = biological target: T1, Nicotinamide N-methyltransferase (Homo sapiens); assay: Binding affinity to NNMT C50 residue in human 786-O cell soluble proteomic lysate at 5 uM incubated for 1 hr followed by cell lysis by IA-alkyne probe based isoTOP-ABPP analysis relative to control
[14] = biological target: T4, Glutathione S-transferase omega-1 (Homo sapiens) (UniProt P78417); assay: Binding affinity to GSTO1 cysteine residue in human 786-O cell soluble proteomic lysate at 5 uM incubated for 1 hr followed by cell lysis by IA-alkyne probe based isoTOP-ABPP analysis
T4 sequence (whole entry): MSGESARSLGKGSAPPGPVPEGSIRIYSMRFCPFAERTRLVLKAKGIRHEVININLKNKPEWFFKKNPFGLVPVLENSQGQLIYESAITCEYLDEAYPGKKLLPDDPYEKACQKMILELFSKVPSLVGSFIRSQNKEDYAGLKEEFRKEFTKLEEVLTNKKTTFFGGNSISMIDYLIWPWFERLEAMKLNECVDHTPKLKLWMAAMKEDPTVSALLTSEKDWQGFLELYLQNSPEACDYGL

[15] = tested on: T5, Nicotinamide N-methyltransferase (Homo sapiens), P40261 [C165A]; assay: Inhibition of NNMT C165A mutant in human 786-O cell lysate using d4-nicotinamide as substrate preincubated for 1 hr followed by substrate and SAM addition measured after 15 to 30 mins by LC-MS analysis
T5 sequence (whole entry): T1 sequence (whole entry) with C165A

[16] = biological target: T6, Heme oxygenase 2 (Homo sapiens) (UniProt P30519); assay: Binding affinity to HMOX2 cysteine residue in human 786-O cell soluble proteomic lysate at 5 uM incubated for 1 hr followed by cell lysis by IA-alkyne probe based isoTOP-ABPP analysis
T6 sequence (whole entry): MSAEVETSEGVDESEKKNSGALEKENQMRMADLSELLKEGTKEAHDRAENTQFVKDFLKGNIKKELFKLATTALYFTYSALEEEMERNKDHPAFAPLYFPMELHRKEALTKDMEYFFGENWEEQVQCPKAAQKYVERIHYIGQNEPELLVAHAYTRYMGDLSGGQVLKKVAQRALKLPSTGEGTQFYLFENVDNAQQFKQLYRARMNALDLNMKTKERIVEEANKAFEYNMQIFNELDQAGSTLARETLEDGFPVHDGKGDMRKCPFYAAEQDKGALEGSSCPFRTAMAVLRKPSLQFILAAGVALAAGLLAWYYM

CC(C)CCN(C(=O)CCl)c1cc(C(=O)Nc2cccnc2Cl)cc(C(F)(F)F)c1
fold change (FC) [1]: 1
Ratio [2]: 200 M⁻¹ s⁻¹
Activity [3]: inactive
IC50 [4]: 200 nM
inhibition [5]: Dose-dependent effect
fold change (FC) [6]: 20
Activity [7]: Active
inhibition [8]: Active
IC50 [9]: 410 nM
inhibition [10]: Dose-dependent effect
fold change (FC) [11]: 1.3
Activity [12]: Active
fold change (FC) [13]: 1.3
Activity [14]: Active
inhibition [15]: inactive
Activity [16]: Active
